The target of test [1] is T1, Carbonic anhydrase 2 (Homo sapiens, UniProt P00918). Briefly: Inhibition of esterase activity of human carbonic anhydrase 2 by spectrophotometry. The conditions noted are these: read-out: I50.
Test [2] has as its target T2, Carbonic anhydrase 1 (Homo sapiens, UniProt P00915). Put plainly: Inhibition of esterase activity of human carbonic anhydrase 1 by spectrophotometry. Conditions: read-out: I50.
Test [3] addresses T1, Carbonic anhydrase 2.
Description: Inhibition of esterase activity of human carbonic anhydrase 2 by Lineweaver-Burke plot analysis
Test [4] addresses T2, Carbonic anhydrase 1.
Description: Inhibition of esterase activity of human carbonic anhydrase 1 by Lineweaver-Burke plot analysis

Usually Ki stands for the equilibrium dissociation constant of an inhibitor or competing ligand from its target. A low value points to tighter binding.

Each structure is given as a SMILES string.

T2 sequence (P00915 2-261 limits assumed): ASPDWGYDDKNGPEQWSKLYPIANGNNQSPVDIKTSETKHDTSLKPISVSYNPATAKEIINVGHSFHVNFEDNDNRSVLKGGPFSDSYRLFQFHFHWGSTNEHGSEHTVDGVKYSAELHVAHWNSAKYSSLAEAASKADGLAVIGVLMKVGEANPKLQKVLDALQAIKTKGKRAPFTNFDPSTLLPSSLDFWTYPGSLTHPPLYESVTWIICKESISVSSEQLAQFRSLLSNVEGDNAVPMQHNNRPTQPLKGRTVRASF

Consider `Cc1ccc(S(=O)(=O)n2cccc2)cc1`, for which the values for the IC50 at Carbonic anhydrase 2 [1] and on Carbonic anhydrase 1 [2] were 14.3 µM and 23.1 µM, respectively. Besides, the values for the Ki at Carbonic anhydrase 2 [3] and at Carbonic anhydrase 1 [4] were 37.5 µM and 42.4 µM, respectively.

The values above are taken from ChEMBL document CHEMBL1166009, “A novel and one-pot synthesis of new 1-tosyl pyrrol-2-one derivatives and analysis of carbonic anhydrase inhibitory potencies” (Bioorg Med Chem, 2010).
